Measured values reported in publication PMC2360547 (British Journal of Cancer, 2006).
“And” between values parts separate entries of the source, which are not always exact repeats. Equal entries are not always repeated. “Also recorded” adds a separate entry of the source. Where two headings read alike, the source gives them in different places.

Key:
metastatic melanoma = experiment: Phase IIA clinical trial: tumour response, survival, performance status; format: in vivo, human; design: key to Best response: PD: progressive disease; SD: stable disease (<25% increase overall diameter of any lesion; no new lesions, after at least 4 weeks); NA: not assessable
From the text: There was no limit on the amount of prior therapy, but no prior chemotherapy or immunotherapy was permitted in the 4 weeks before study entry. Patients with CNS metastases were eligible. At least the first 14 patients entered were also required to have at least two lesions suitable for excision biopsy (skin, subcutaneous metastases). Written informed consent was obtained from all patients and the protocol was approved by the Human Research Ethics Committees of the participating institutions.
This fixed dose schedule was calculated from the Phase I study, in which higher single daily doses were associated with more GIT toxicity.
Patients were reviewed for safety and efficacy of midostaurin weekly for the first month, and then on a monthly basis, or more frequently where symptoms warranted. Disease sites were re-evaluated by clinical examination monthly or CT every 2 months, or more frequently if disease progression was suspected.
(§1) It was planned to recruit 14 patients with disease suitable for biopsy as the first cohort. […] If at least one response occurred, a further 13 patients (not necessarily with disease suited for biopsy) would be recruited. Response and toxicity were assessed using WHO criteria.

[1] = tested on: patients with metastatic melanoma; experiment: Phase IIA clinical trial: safety and toxicity; format: in vivo, human
Experimental: Disease sites were re-evaluated by clinical examination monthly or CT every 2 months, or more frequently if disease progression was suspected.
as §1

[2] = tested on: multidrug resistant cells (R100; CCRF CEM cells resistant to 100 ng ml−1 vinblastine); conditions: for Percent of potential maximum reversal of multidrug resistance: plasma from patients receiving midostaurin 75 mg t.i.d.
Experimental: This was determined using a previously reported method that assessed the capacity of cremophor EL to inhibit MDR^10. Briefly, the ability of the patient's plasma to modulate ex vivo intracellular daunorubicin accumulation in multidrug resistant cells (R100; CCRF CEM cells resistant to 100 ng ml^−1 vinblastine) was measured using fluorescence detection. The activity of 20 μg ml^−1 Valspodar (PSC833, an inhibitor of P-glycoprotein) added to the patient's prestudy plasma sample defined 100% reversal ([…] of daunorubicin). […] The modulating ability of day 29 plasma samples was determined relative to this. All assays were performed in triplicate. Blank plasma was spiked with 1.0 μl ml^−1 cremophor EL and run as an inter-assay control.

[3] = Plasma concentrations by HPLC with fluorescence detection; format: in vivo, human; conditions: for concentration at 28 day: human, plasma, oral
Experimental: (§2) Therefore, the tumour tissue was frozen and cut into as small as possible pieces with a scalpel. The pieces were weighed, added to 1 ml of water, vortexed and thereafter treated like plasma. The assay for plasma samples was validated with acceptable calibration curves, within-study variability and total recovery. […] Due to limited availability of tumour tissue, the within-study validation for tumour assay was not performed.

[4] = Tumour tissue concentrations by HPLC with fluorescence detection; format: in vivo, human; conditions: for Kp at 28 day / concentration at 28 day: human, oral, 10 subjects; for Kp at 28 day: tumour tissue / plasma, 75 mg three times a day, tumour tissue to plasma; for concentration at 28 day: 75 mg tid
Experimental: as §2

PKCα = tested on: PKCα; design: method as in Fabbro et al, 2000; conditions: ref Fabbro et al, 2000; cited from earlier work
[5] = design: method as in Novartis internal report; conditions: ref Novartis internal report; cited from earlier work
[6] = design: method as in Propper et al, 2001; conditions: Phase I trial, oral; ref Propper et al, 2001; cited from earlier work
[7] = tested on: acute myeloid leukaemia (AML); design: method as in Stone et al, 2005; conditions: ref Stone et al, 2005, cited from earlier work
[8] = tested on: patients with advanced cancer; conditions: ref Propper et al, 2001, cited from earlier work
[9] = 20 μg ml−1 added to pretreatment plasma, 100% = 20 μg ml−1 Valspodar

CO[C@@H]1[C@H](N(C)C(=O)c2ccccc2)C[C@H]2O[C@]1(C)n1c3ccccc3c3c4c(c5c6ccccc6n2c5c31)C(=O)NC4 [Midostaurin, N-benzoyl-staurosporine]
Median survival (metastatic melanoma; 17 patients, 75 mg p.o. t.i.d.): 43 days | Survival, range (metastatic melanoma; 17 patients, 75 mg p.o. t.i.d.): 8 to 113 days | Tumour response (metastatic melanoma; 17 patients, midostaurin 75 mg p.o. t.i.d.): No tumour responses were seen; also recorded: No patient obtained a tumour response | Patients with no change of ECOG performance status (metastatic melanoma; eight patients, on study): 47% | Patients with progressive disease (metastatic melanoma; fourteen out of 17 patients, 75 mg p.o. t.i.d.): 82% | Duration of stable disease (best response duration) (metastatic melanoma; individual patients with stable disease, midostaurin 75 mg p.o. t.i.d.): 50 days and 85 days | Best response (metastatic melanoma; individual patients, midostaurin 75 mg p.o. t.i.d., WHO criteria): PD and SD (2×) | Patients with worsening of ECOG performance status (metastatic melanoma; nine patients, on study): 53% | Patients with stable disease (metastatic melanoma; two out of 17 patients, 75 mg p.o. t.i.d.): 12% | Patients with anaemia ([1]; 17 patients): 12 patients | Patients with anaemia reaching grade 2 ([1]; 17 patients): five | Patients requiring dose modification for nausea or vomiting ([1]; 17 patients, 75 mg p.o. t.i.d.): Two | Patients with hyperglycemia ([1]; 17 patients, one of Grade 2 severity): Four | Patients with elevated liver enzymes (alanine transaminase or aspartate transaminase) possibly linked to therapy ([1]; 17 patients, only one reached grade 2): four | Patients who discontinued owing to nausea, vomiting, diarrhoea and/or fatigue possibly related to study drug ([1]; seven out of 17 patients, 75 mg p.o. t.i.d.): 41% | Percent of potential maximal reversal of multidrug resistance, mean [2, 9]: 40% | Percent of potential maximal reversal of multidrug resistance, range [2, 9]: 14–64% | Percent of potential maximum reversal of multidrug resistance ([2]; 10 out of 12 patients): < 10% | Percent of potential maximum reversal of multidrug resistance ([2]; all 12 patients): < 20% | concentration at 28 day ([3]; 75 mg three times a day, calculated for median plasma concentration of 2342 nM and 99% protein binding, read-out: Free plasma concentration): 23.4 nM | concentration at 28 day ([3]; 75 mg tid, 12 subjects, about 1 month of 75 mg tid, read-out: Plasma concentrations, maximum): 4650 nM | concentration at 28 day ([3]; 75 mg tid, 12 subjects, about 1 month of 75 mg tid, read-out: Plasma concentrations, mean): 2450 nM | concentration at 28 day ([3]; 75 mg tid, 12 subjects, about 1 month of 75 mg tid, read-out: Plasma concentrations, median): 2340 nM | concentration at 28 day ([3]; 75 mg tid, 12 subjects, about 1 month of 75 mg tid, read-out: Plasma concentrations, minimum): 771 nM | concentration at 28 day ([3]; 75 mg tid, 12 subjects, about 1 month of 75 mg tid, read-out: Plasma trough concentrations, range): 771 to 4650 nM | Plasma concentrations ([3]; individual subjects, sampling day 27-30, midostaurin 75 mg tid): 2614 nM and 1639 nM and 771 nM and 2901 nM and 2226 nM and 2387 nM and 4649 nM and 1765 nM and 1437 nM and 2297 nM and 3549 nM and 3212 nM | Kp at 28 day ([4]; read-out: Tissue/plasma ratios, maximum): 1.86 | Kp at 28 day ([4]; read-out: Tissue/plasma ratios, mean): 0.56 | Kp at 28 day ([4]; read-out: Tissue/plasma ratios, median): 0.29 | Kp at 28 day ([4]; read-out: Tissue/plasma ratios, minimum): 0.02 | concentration at 28 day ([4]; tumour tissue, tumour tissue, about 1 month of 75 mg tid, read-out: Tissue concentrations, maximum): 4250 nM | concentration at 28 day ([4]; tumour tissue, tumour tissue, about 1 month of 75 mg tid, read-out: Tissue concentrations, mean): 1300 nM | concentration at 28 day ([4]; tumour tissue, tumour tissue, about 1 month of 75 mg tid, read-out: Tissue concentrations, median): 593 nM | concentration at 28 day ([4]; tumour tissue, tumour tissue, about 1 month of 75 mg tid, read-out: Tissue concentrations, minimum): 58 nM | Tissue concentrations ([4]; tumour tissue, individual subjects, about 1 month of 75 mg tid): 58 nM and 607 nM and 266 nM and 579 nM and 4142 nM and 550 nM and 1528 nM and 358 nM and 698 nM and 4246 nM | IC50 (PKCα): 22 nM | Plasma protein binding [5]: 99% | Elimination t1/2, range [6]: 22 to 96 h | Estimated median elimination t1/2 [6]: 38.4 h | Tolerability ([7]; 225 mg day−1 in AML): well-tolerated | AML patients with a 50% reduction in bone marrow blast cells [7]: 25% | AML patients with a 50% reduction of peripheral blood blast cells [7]: 70% | Response in two patients with cholangiocarcinoma ([8]; for 4 months on midostaurin): one had stable disease and one a partial response | MTD ([8]; oral, 12.5–300 mg day−1): not reached | Patients with nausea/vomiting ([8]; oral, 225–300 mg day−1 (grade 3 in 3)): 15 out of 16 | Patients with grade 2 diarrhoea ([8]; oral, 225–300 mg day−1): six out of 16
